Test results taken from patent publication US7488481B2, “Polypeptides derived from anti-HIV-1 gp120 antibodies that abrogate gp120 binding to CCR5” (priority 2003, dated 2009).
Ends that are not written are not given here. * marks the point of attachment. SO3H = O=S(=O)(O)*

Columns and labels:
[1] = system: interaction between gp120 and CCR5; assay: Effectiveness of peptides based upon E51
[2] = system: ADA gp120; assay: Peptide competition of scFv association with ADA gp120 and CD4-Ig; assay type: binding, HIV-1; conditions: scFv of sulfated antibodies
Experimental: Radiolabeled single-chain antibody constructs (scFv) were incubated with radiolabeled gp120 of the ADA isolate in the presence and absence of soluble CD4. […] Ratios of gp120 precipitated in the presence and absence of soluble CD4 were calculated by densitometry. Radiolabeled scFv was incubated with ADA gp120 and CD4-Ig in the presence of peptide buffer (buffer only), an unsulfated peptide derived from the first 22 residues of the CCR5 amino-terminus (c22), a peptide derived from the first 22 residues of the CCR5 amino-terminus in which tyrosines 10 and 14 are sulfated (s22), or a peptide derived from residues 7-28 of the C5a receptor sulfated at the tyrosines corresponding to residues 11 and 14 of the C5a receptor (c5aR-s22).

[3] = system: association of gp120 with CCR5; conditions: peptides previously characterized; cited from earlier work

Substance	effectiveness compared with the longer sequence SEQ ID NO:4 [1]	effect of peptide on association of scFv with ADA gp120 [2]	effect of peptide on the association of gp120 with CCR5 [3]
GDYADYDGGYYYDMD (listed as Homo sapiens) [SEQ ID NO:3, shorter peptide based upon E51]	just as effective as the longer sequence	–	–
c5aR-s22: peptide from residues 7-28 of the C5a receptor sulfated at tyrosines 11 and 14	–	very modest inhibition	did not have a noticeable effect
c22: unsulfated peptide derived from the first 22 residues of the CCR5 amino-terminus (MDYQVSSPIYDINYYTSEPCQK; UniProt P51681 1-22, looked up, fragment)	–	no significant effect	–
s22: peptide from the first 22 residues of the CCR5 amino-terminus in which tyrosines 10 and 14 are sulfated (MDYQVSSPIY(SO3H)DINY(SO3H)YTSEPCQK)	–	inhibited	–
